Data published in doi:10.1101/2020.11.21.391136v1 (biorxiv, 2020).
Positions count from the first letter of the chain named. Blank lines part the entries; values can stand above or below the compound they belong to.

Experiments:
[1] = molecular target: T1, A1R (Homo sapiens, UniProt P30542); set-up: species or system HEK293A; details: % AP-TGFα release, not normalised to a reference agonist
T1 sequence (P30542 1-326): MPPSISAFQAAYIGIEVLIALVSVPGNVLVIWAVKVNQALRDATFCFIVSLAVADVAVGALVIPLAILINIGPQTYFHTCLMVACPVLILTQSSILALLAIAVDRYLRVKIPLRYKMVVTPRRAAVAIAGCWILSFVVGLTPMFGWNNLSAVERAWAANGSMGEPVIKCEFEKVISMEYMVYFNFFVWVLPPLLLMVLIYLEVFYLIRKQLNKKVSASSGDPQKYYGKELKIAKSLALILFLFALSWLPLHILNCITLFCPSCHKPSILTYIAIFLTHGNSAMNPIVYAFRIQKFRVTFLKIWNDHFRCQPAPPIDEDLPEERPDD

[2] = molecular target: T2, A2BR (Homo sapiens, UniProt P29275); assay: cell-based; set-up: species or system HEK293A
T2 sequence (P29275 1-332): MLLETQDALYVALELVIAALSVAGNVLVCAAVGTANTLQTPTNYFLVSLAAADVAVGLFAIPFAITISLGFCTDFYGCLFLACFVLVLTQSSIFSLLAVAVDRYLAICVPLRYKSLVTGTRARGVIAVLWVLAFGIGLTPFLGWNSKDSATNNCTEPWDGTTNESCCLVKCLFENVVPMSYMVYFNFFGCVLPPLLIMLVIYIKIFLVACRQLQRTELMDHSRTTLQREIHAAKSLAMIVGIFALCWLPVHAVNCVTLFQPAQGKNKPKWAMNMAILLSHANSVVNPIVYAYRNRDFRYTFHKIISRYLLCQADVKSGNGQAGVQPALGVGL

[3] = molecular target: A2AR (Homo sapiens, UniProt P29274, T256I); assay: cell-based; set-up: species or system HEK293A; details: HEK293-A, read-out: Emax (%)
[4] = molecular target: T3, Ss-A3R (Sus scrofa, UniProt F1SBN8); assay: TGF-alpha shedding assay, HEK293A; assay type: cell-based
T3 sequence (F1SBN8 1-318): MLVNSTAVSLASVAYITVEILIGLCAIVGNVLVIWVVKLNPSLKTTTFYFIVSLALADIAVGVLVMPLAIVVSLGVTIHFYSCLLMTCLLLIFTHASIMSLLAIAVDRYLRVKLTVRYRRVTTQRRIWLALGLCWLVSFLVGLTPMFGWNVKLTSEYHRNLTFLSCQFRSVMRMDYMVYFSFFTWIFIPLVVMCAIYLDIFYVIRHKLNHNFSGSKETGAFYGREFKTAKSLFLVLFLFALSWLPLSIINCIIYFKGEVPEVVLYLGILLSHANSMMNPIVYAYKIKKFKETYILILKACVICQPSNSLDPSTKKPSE

[5] = molecular target: T4, A3R (Hs-A3R) (Homo sapiens, UniProt P0DMS8, I253T); assay: cell-based; set-up: species or system HEK293A
T4 sequence (P0DMS8 1-318 I253T): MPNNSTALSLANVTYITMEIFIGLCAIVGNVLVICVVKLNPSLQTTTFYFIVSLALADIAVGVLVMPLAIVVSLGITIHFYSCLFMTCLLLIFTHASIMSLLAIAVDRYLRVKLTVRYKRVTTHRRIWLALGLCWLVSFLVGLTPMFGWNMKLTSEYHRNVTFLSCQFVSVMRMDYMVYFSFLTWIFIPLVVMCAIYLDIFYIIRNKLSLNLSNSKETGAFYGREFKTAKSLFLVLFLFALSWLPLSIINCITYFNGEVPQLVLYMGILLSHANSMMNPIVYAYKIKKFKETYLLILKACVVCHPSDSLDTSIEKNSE

[6] = molecular target: T5, A1R (Homo sapiens, UniProt P30542, T257I); assay: cell-based; set-up: species or system HEK293A; details: HEK293-A, read-out: Emax (%)
T5 sequence (P30542 1-326 T257I): T1 sequence (P30542 1-326) with T257I

[7] = molecular target: T6, A3R (Hs-A3R) L264T (Homo sapiens, UniProt P0DMS8, L264T); assay: cell-based; set-up: species or system HEK293A
T6 sequence (P0DMS8 1-318 L264T): T4 sequence (P0DMS8 1-318 I253T) with T253I, L264T

[8] = molecular target: T7, A2AR (Homo sapiens, UniProt P29274); assay: cell-based; set-up: species or system HEK293A; details: HEK293-A, read-out: Emax (%)
[9] = molecular target: T8, A1R T270L (Homo sapiens, UniProt P30542, T270L); assay: cell-based; set-up: species or system HEK293A; details: HEK293-A, read-out: Emax (%)
T8 sequence (P30542 1-326 T270L): T1 sequence (P30542 1-326) with T270L

[10] = molecular target: T9, A3R (Hs-A3R) (Homo sapiens, UniProt P0DMS8); assay: cell-based; set-up: species or system HEK293A
T9 sequence (P0DMS8 1-318): T4 sequence (P0DMS8 1-318 I253T) with T253I

[11] = molecular target: T10, A3R (Hs-A3R) (Homo sapiens, UniProt P0DMS8, V169E); assay: cell-based; set-up: species or system HEK293A
T10 sequence (P0DMS8 1-318 V169E): T4 sequence (P0DMS8 1-318 I253T) with V169E, T253I

[12] = molecular target: T11, A1R (Homo sapiens, UniProt P30542, E172V); assay: cell-based; set-up: species or system HEK293A; details: HEK293-A, read-out: Emax (%)
T11 sequence (P30542 1-326 E172V): T1 sequence (P30542 1-326) with E172V

[13] = molecular target: T2, A2BR; assay: TGF-alpha shedding assay, HEK293A; assay type: cell-based
[14] = molecular target: T8, A1R T270L; assay: cell-based; set-up: species or system HEK293A
[15] = molecular target: T6, A3R (Hs-A3R) L264T; assay: cell-based; set-up: species or system HEK293A; remark: listed apart in the source
[16] = molecular target: A2AR (Homo sapiens, UniProt P29274, E169V); set-up: species or system HEK293A; details: % AP-TGFα release, not normalised to a reference agonist
[17] = molecular target: T12, A3R (Hs-A3R) (Homo sapiens, UniProt P0DMS8, L264M); assay: cell-based; set-up: species or system HEK293A
T12 sequence (P0DMS8 1-318 L264M): T4 sequence (P0DMS8 1-318 I253T) with T253I, L264M

[18] = molecular target: T7, A2AR; assay: TGF-alpha shedding assay, HEK293A; assay type: cell-based
[19] = molecular target: T1, A1R; assay: TGF-alpha shedding assay, HEK293A; assay type: cell-based
[20] = molecular target: A2AR (Homo sapiens, UniProt P29274, M270L); assay: cell-based; set-up: species or system HEK293A; details: HEK293-A, read-out: Emax (%)
[21] = % AP-TGFα release, not normalised to a reference agonist, agonist

T7 sequence (P29274 whole entry): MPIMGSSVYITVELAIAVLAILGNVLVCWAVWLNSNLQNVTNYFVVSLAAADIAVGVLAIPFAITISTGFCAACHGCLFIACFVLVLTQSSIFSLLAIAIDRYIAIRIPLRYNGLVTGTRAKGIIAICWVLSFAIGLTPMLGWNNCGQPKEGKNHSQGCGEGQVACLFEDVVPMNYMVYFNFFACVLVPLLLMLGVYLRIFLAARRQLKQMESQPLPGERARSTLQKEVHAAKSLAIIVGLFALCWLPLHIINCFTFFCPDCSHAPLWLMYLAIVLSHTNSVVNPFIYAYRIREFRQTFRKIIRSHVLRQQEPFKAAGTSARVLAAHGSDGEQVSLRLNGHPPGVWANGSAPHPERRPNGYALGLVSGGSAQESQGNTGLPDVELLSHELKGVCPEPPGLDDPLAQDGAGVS
Chain of A2AR (Homo sapiens, UniProt P29274, E169V) (P29274 whole entry E169V): as the sequence (P29274 whole entry) above, with E169V counted along it
Chain of A2AR (Homo sapiens, UniProt P29274, T256I) (P29274 whole entry T256I): as the sequence (P29274 whole entry) above, with T256I counted along it
Chain of A2AR (Homo sapiens, UniProt P29274, M270L) (P29274 whole entry M270L): as the sequence (P29274 whole entry) above, with M270L counted along it

Emax (%) [1]: 17 ± 2.2%
Emax ([2]; HEK293-A, read-out: Emax (%)): 76 ± 4.7%
Emax [3]: 30 ± 1.7%
EC50 [4]: 39 ± 3.1 nM
Emax ([5]; HEK293-A, read-out: Emax (%)): 41 ± 2.2%
Emax [6]: 42 ± 1.2%
EC50 [7]: 6.4 ± 0.44 nM
Emax [8]: 17 ± 0.57%
Emax [9]: 15 ± 1.6%
Emax ([10]; HEK293-A, read-out: Emax (%)): 43 ± 2.1%
Emax ([11]; HEK293-A, read-out: Emax (%)): 22 ± 2%
Emax [12]: 32 ± 1.9%
EC50 [13]: 51000 ± 6400 nM
EC50 [14]: 540 ± 62 nM
Emax ([15]; HEK293-A, read-out: Emax (%)): 27 ± 2.2%
Emax (%) [16]: 29 ± 2.0%
Emax ([17]; HEK293-A, read-out: Emax (%)): 43 ± 1.7%
EC50 [18]: 13000 ± 1100 nM
EC50 [19]: 840 ± 130 nM
Emax [20]: 3.5 ± 0.68%
SMILES: CNc1ncnc2c1ncn2[C@@H]1O[C@H](CO)[C@@H](O)[C@H]1O [m^6A]

Emax (%) [2, 21]: 57 ± 1.2%
Emax (%) [5, 21]: 37 ± 2.0%
Emax (%) [10, 21]: 39 ± 0.82%
Emax (%) [11, 21]: 14 ± 4.1%
Emax (%) [15, 21]: 22 ± 0.84%
Emax (%) [17, 21]: 39 ± 2.6%
SMILES: Nc1ncnc2c1ncn2[C@@H]1O[C@H](CO)[C@@H](O)[C@H]1O [adenosine]
